Experiments:
Assay in all cases: In vitro HDACs Inhibition Fluorescence Assay
[1] = target: Histone deacetylase 4 (Homo sapiens, UniProt P56524)
Protocol: (§1) Afterincubation at 37 °C for 10 min, 40 μL of fluorogenic substrate (Boc-Lys(Ac)-AMC for HeLa nuclear extracts; Ac-Leu- GlyLyS(Ac)-AMC for HDAC1, HDAC6, and HDAC11; Ac-Leu-GlyLyS(Tfa)-AMC for HDAC4 and HDAC8) was added, and then, the mixture was incubated at 37 °C for 30 min. The mixture was stopped by addition of 100 μL of developer containing trypsin and TSA afterward. Over the next incubation at 37 °C for 20 min, fluorescence intensity was measured using a microplate reader at excitation and emission wavelengths of 390 and 460 nm, respectively.

[2] = target: Histone deacetylase 1 (Homo sapiens, UniProt Q13547)
Histone deacetylase 1, sequence (Q13547 whole entry): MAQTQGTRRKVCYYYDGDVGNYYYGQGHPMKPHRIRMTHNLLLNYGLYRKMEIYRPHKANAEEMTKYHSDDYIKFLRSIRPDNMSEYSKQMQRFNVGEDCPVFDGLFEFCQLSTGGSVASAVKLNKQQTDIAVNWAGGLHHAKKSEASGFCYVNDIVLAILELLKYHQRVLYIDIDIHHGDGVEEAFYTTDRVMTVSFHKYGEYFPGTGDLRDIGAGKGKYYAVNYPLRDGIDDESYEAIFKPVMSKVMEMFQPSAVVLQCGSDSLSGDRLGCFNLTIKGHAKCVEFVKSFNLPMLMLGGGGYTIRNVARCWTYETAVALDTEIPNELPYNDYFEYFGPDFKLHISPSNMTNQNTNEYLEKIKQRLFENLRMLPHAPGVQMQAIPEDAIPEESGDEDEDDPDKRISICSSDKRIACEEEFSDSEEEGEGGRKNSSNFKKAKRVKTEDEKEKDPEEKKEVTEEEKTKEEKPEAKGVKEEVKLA
Protocol: as §1

[3] = target: T1, Histone deacetylase 6 (Homo sapiens, UniProt Q9UBN7)
T1 sequence (Q9UBN7 whole entry): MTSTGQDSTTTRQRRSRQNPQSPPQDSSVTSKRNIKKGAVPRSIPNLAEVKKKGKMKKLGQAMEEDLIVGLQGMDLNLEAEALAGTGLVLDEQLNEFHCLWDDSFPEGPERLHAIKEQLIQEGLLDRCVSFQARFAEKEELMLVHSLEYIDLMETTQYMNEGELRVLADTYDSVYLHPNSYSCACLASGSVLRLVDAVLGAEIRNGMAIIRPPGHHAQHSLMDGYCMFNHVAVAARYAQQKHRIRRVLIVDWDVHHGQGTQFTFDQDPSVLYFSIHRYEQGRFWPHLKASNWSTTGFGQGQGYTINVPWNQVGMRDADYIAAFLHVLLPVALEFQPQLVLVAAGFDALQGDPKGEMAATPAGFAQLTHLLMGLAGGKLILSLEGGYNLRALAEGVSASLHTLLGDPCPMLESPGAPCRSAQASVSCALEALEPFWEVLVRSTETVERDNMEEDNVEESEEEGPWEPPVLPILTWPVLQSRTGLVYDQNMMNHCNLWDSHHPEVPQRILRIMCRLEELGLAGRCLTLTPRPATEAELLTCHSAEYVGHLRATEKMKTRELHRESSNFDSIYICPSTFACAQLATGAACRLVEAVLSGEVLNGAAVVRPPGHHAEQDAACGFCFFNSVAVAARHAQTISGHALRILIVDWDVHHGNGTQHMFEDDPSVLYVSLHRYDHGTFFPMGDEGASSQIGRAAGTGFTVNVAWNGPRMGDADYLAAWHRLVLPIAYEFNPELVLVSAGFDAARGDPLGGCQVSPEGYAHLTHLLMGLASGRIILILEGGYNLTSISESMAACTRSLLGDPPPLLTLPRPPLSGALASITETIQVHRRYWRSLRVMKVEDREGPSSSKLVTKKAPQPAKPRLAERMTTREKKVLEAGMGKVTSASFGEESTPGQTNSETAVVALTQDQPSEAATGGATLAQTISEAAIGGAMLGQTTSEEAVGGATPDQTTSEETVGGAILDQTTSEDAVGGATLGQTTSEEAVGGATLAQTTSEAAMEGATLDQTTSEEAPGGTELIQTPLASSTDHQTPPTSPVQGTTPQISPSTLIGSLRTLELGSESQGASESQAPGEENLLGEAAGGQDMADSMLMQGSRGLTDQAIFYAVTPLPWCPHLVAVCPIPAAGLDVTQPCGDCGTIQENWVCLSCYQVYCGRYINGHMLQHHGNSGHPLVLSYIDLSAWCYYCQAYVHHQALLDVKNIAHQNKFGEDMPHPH
Protocol: as §1

[4] = target: T2, Histone deacetylase 8 (Homo sapiens, UniProt Q9BY41)
T2 sequence (Q9BY41 whole entry): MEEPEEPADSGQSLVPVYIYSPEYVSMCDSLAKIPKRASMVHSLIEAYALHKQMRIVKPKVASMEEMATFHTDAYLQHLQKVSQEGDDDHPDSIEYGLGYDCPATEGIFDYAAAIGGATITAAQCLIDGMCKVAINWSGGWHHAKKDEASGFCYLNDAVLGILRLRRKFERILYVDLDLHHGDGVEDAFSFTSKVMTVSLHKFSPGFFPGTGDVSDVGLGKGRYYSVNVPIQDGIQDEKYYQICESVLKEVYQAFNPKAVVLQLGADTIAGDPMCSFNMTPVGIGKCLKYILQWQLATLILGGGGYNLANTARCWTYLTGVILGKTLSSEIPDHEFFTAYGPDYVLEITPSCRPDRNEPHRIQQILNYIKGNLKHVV
Protocol: as §1

[5] = target: T3, Histone deacetylase 11 (Homo sapiens, UniProt Q96DB2)
T3 sequence (Q96DB2 whole entry): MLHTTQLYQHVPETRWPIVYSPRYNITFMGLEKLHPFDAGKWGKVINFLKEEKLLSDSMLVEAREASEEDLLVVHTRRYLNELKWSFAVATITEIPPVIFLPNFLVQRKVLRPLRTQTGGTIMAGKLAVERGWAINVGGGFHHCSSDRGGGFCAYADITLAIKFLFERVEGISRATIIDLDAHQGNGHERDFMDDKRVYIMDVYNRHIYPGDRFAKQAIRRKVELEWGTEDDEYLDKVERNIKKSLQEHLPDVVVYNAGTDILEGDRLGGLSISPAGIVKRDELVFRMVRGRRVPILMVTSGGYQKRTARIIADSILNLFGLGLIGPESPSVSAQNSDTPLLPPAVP
Protocol: as §1

Histone deacetylase 4, sequence (P56524 whole entry): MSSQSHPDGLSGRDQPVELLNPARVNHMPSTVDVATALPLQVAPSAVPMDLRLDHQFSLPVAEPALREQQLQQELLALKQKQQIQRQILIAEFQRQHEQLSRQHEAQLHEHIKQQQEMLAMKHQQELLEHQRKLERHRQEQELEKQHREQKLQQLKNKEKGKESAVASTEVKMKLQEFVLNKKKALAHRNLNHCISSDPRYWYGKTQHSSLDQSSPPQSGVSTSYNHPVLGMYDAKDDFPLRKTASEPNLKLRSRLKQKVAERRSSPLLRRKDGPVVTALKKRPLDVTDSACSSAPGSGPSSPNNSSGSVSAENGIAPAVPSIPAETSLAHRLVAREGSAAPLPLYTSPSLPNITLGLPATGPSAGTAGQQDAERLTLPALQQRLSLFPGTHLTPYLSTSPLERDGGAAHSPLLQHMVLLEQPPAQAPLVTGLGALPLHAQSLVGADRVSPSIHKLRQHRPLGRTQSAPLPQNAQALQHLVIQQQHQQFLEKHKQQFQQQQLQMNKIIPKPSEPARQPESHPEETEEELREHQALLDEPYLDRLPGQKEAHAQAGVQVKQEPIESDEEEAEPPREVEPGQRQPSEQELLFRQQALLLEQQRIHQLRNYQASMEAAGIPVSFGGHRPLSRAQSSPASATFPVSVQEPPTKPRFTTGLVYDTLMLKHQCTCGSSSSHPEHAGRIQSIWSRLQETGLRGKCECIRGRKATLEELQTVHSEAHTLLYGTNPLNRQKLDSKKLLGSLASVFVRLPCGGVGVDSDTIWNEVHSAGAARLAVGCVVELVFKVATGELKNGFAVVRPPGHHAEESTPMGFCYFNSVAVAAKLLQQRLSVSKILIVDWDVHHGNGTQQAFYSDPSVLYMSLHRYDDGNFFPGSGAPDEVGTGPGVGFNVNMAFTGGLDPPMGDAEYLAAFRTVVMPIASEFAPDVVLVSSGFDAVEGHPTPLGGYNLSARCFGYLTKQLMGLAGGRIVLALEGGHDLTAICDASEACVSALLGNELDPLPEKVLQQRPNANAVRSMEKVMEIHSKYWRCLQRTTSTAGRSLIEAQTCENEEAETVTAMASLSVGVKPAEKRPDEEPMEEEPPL

O=C(/C=C/c1cccc(S(=O)(=O)N[C@H](C(=O)Nc2cccc3ccccc23)c2ccccc2)c1)NO [(S,E)-N-hydroxy-3-(3-(N-(2-(naphthalen-1-ylamino)-2-oxo-1-phenylethyl)sulfamoyl)phenyl)acrylamide (10s)]
IC50 [1]: 23000 nM
IC50 [2]: 93 nM
IC50 [3]: 80 nM
IC50 [4]: 659 nM
IC50 [5]: 3850 nM

O=C(/C=C/c1cccc(S(=O)(=O)Nc2ccccc2)c1)NO [Belinostat]
IC50 [1]: 9850 nM

From BindingDB's records for doi:10.1111/cbdd.12787 (Shandong University, 2016)
